# Reference: ChEMBL document CHEMBL4842342, “Amidoxime prodrugs convert to potent cell-active multimodal inhibitors of the dengue virus protease” (Eur J Med Chem, 2021)
# The source made the active and inactive calls. The calls are words filed in the database; no cut-off is given here.
# How the values were obtained:
# dengue virus type 2 [1] = assay: Antiviral activity against Dengue virus 2 measured at 48 hrs post-infection; assay type: functional, organism-based
# Genome polyprotein = Genome polyprotein (dengue virus type 2, UniProt P29990); assay: Inhibition of DENV2 NS2B-NS3 protease
# dengue virus type 2 [2] = assay: Antiviral activity against Dengue virus 2 EDEN2 infected in human Huh-7 cells; assay type: functional, organism-based; conditions: EDEN2, Huh-7
# [3] = Cytotoxicity against human Huh-7 cells assessed as reduction in cell viability; assay type: cell-based
# dengue virus type 2 [4] = assay: Antiviral activity against DENV2 D2Y10 virus infected in human PBMC cells in presence of 4G2 antibody; assay type: functional, organism-based
# [5] = Cytotoxicity against human PBMC assessed as reduction in cell viability
# Zika virus = assay: Antiviral activity against Zika virus; assay type: functional, organism-based
# [6] = target: Genome polyprotein (dengue virus type 2) (UniProt P29990); assay: Inhibition of DENV2 NS2B-NS3 protease up to 200 uM; conditions: dose microM <=200
# dengue virus type 2 [7] = assay: Antiviral activity against DENV2 infected in human Huh-7 cells assessed as log reduction in intracellular viral RNA synthesis at 10 uM treated at 6 hrs post-viral infection and measured after 12 hrs by real time RT-PCR method; assay type: functional
# dengue virus type 2 [8] = assay: Antiviral activity against DENV2 infected in human Huh-7 cells assessed as log reduction in extracellular viral RNA synthesis at 10 uM treated at 6 hrs post-viral infection and measured after 48 hrs by real time RT-PCR method; assay type: functional
# dengue virus type 2 [9] = assay: Antiviral activity against DENV2 infected in human Huh-7 cells assessed as viral infection rate at 10 uM treated at 6 hrs post-viral infection and measured at 30 hrs post-infection by confocal microscopy (reference value: 50 to 60%); assay type: functional; conditions: time 24 hrs
# dengue virus type 2 [10] = assay: Antiviral activity against DENV2 infected in human Huh-7 cells assessed as log reduction in intracellular viral RNA synthesis at 10 uM treated at 6 hrs post-viral infection and measured after 38 hrs by real time RT-PCR method; assay type: functional
# dengue virus type 2 [11] = assay: Antiviral activity against DENV2 infected in human Huh-7 cells assessed as reduction in intracellular viral RNA synthesis at 10 uM treated at 6 hrs post-viral infection and measured after 48 hrs by real time RT-PCR method; assay type: functional, organism-based
# [12] = target: Genome polyprotein (dengue virus type 2) (UniProt P29990); assay: Inhibition of NS2B-NS3 protease in DENV2 infected in human Huh-7 cells assessed as inhibition of NS3 internal cleavage site at 10 uM treated 6 hrs […] viral infection and measured at 30 hrs post-infection by western blot analysis; assay type: cell-based; conditions: time 24.0 hrs
# [13] = Dengue virus, 48 h, read-out: EC50
SMILES,EC50 (dengue virus type 2 [1]; [13]) [µM],also measured
N/C(=N\O)c1cccc(-c2ccc3c(c2)c2cc(-c4cccc(/C(N)=N/O)c4)ccc2n3Cc2ccc(F)cc2)c1,8.1,–
N/C(=N\O)c1cccc(-c2ccc3c(c2)c2cc(-c4cccc(/C(N)=N/O)c4)ccc2n3Cc2ccc(Br)c(F)c2)c1,1.4,–
N/C(=N\O)c1cccc(-c2ccc3c(c2)c2cc(-c4cccc(/C(N)=N/O)c4)ccc2n3S(=O)(=O)c2cccc(C(F)(F)F)c2)c1,5,IC50 (Genome polyprotein): Not Active
COc1ccc(S(=O)(=O)n2c3ccc(-c4cccc(/C(N)=N/O)c4)cc3c3cc(-c4cccc(/C(N)=N/O)c4)ccc32)cc1C,3.1,–
N/C(=N\O)c1cccc(-c2ccc3c(c2)c2cc(-c4cccc(/C(N)=N/O)c4)ccc2n3Cc2cc(F)cc(Br)c2)c1,1.5,–
N/C(=N\O)c1cccc(-c2ccc3c(c2)c2cc(-c4cccc(/C(N)=N/O)c4)ccc2n3S(=O)(=O)c2cccc(Cl)c2)c1,7.6,–
N=C(N)c1cccc(-c2ccc3c(c2)c2cc(-c4cccc(C(=N)N)c4)ccc2n3S(=O)(=O)c2cccc(OC(F)(F)F)c2)c1,8.1,IC50 (Genome polyprotein; read-out: IC50): 3.1 µM
N/C(=N\O)c1cccc(-c2ccc3c(c2)c2cc(-c4cccc(/C(N)=N/O)c4)ccc2n3S(=O)(=O)c2ccc(Br)cc2)c1,5.4,–
N=C(N)c1cccc(-c2ccc3c(c2)c2cc(-c4cccc(C(=N)N)c4)ccc2n3S(=O)(=O)c2ccccc2Br)c1,6.9,IC50 (Genome polyprotein; read-out: IC50): 8.8 µM
Cn1c2ccc(-c3cccc(/C(N)=N/O)c3)cc2c2cc(-c3cccc(/C(N)=N/O)c3)ccc21,–,EC50 (dengue virus type 2 [1]): Not Active
N/C(=N\O)c1cccc(-c2ccc3c(c2)c2cc(-c4cccc(/C(N)=N/O)c4)ccc2n3CCCCOc2ccc3ccc(=O)[nH]c3c2)c1,8.9,–
N/C(=N\O)c1cccc(-c2ccc3c(c2)c2cc(-c4cccc(/C(N)=N/O)c4)ccc2n3CC(O)CS(=O)(=O)c2cccc(F)c2)c1 (stereo unspecified),8.7,–
COc1ccc(F)cc1S(=O)(=O)n1c2ccc(-c3cccc(/C(N)=N/O)c3)cc2c2cc(-c3cccc(/C(N)=N/O)c3)ccc21,2.8,–
N/C(=N\O)c1cccc(-c2ccc3c(c2)c2cc(-c4cccc(/C(N)=N/O)c4)ccc2n3S(=O)(=O)c2ccc(C(F)(F)F)cc2)c1,4.9,–
CCn1c2ccc(-c3cccc(/C(N)=N/O)c3)cc2c2cc(-c3cccc(/C(N)=N/O)c3)ccc21,1.5,–
COc1ccc(S(=O)(=O)n2c3ccc(-c4cccc(/C(N)=N/O)c4)cc3c3cc(-c4cccc(/C(N)=N/O)c4)ccc32)c(OC)c1,1.8,–
COc1ccc(Cn2c3ccc(-c4cccc(/C(N)=N/O)c4)cc3c3cc(-c4cccc(/C(N)=N/O)c4)ccc32)cc1F,6.9,–
N/C(=N\O)c1cccc(-c2ccc3c(c2)c2cc(-c4cccc(/C(N)=N/O)c4)ccc2n3S(=O)(=O)c2cccc3cccnc23)c1,8.5,–
COc1ccc(OC)c(S(=O)(=O)n2c3ccc(-c4cccc(/C(N)=N/O)c4)cc3c3cc(-c4cccc(/C(N)=N/O)c4)ccc32)c1,5.1,–
N/C(=N\O)c1cccc(-c2ccc3c(c2)c2cc(-c4cccc(/C(N)=N/O)c4)ccc2n3S(=O)(=O)c2ccccc2C(F)(F)F)c1,5.3,–
COc1cccc(S(=O)(=O)n2c3ccc(-c4cccc(C(=N)N)c4)cc3c3cc(-c4cccc(C(=N)N)c4)ccc32)c1,26.2,IC50 (Genome polyprotein; read-out: IC50): 4.5 µM
COc1ccc(S(=O)(=O)n2c3ccc(-c4cccc(/C(N)=N/O)c4)cc3c3cc(-c4cccc(/C(N)=N/O)c4)ccc32)cc1OC,5.7,–
COc1cccc(Cn2c3ccc(-c4cccc(-c5noc(=O)[nH]5)c4)cc3c3cc(-c4cccc(-c5noc(=O)[nH]5)c4)ccc32)c1,14.5,IC50 (Genome polyprotein; read-out: IC50): 121 µM

SMILES,EC50 (dengue virus type 2 [1]; [13]) [µM],also measured
COc1ccc(S(=O)(=O)n2c3ccc(-c4cccc(/C(N)=N/O)c4)cc3c3cc(-c4cccc(/C(N)=N/O)c4)ccc32)cc1,9.6,IC50 (Genome polyprotein): Not Active
COc1ccc(S(=O)(=O)n2c3ccc(-c4cccc(/C(N)=N/O)c4)cc3c3cc(-c4cccc(/C(N)=N/O)c4)ccc32)cc1F,2.7,–
N/C(=N\O)c1cccc(-c2ccc3c(c2)c2cc(-c4cccc(/C(N)=N/O)c4)ccc2n3CC(O)COc2ccccn2)c1 (stereo unspecified),33.9,–
N/C(=N\O)c1cccc(-c2ccc3c(c2)c2cc(-c4cccc(/C(N)=N/O)c4)ccc2n3S(=O)(=O)c2ccccc2Cl)c1,2.7,–
N/C(=N\O)c1cccc(-c2ccc3c(c2)c2cc(-c4cccc(/C(N)=N/O)c4)ccc2n3S(=O)(=O)c2cccc(Br)c2)c1,2.4,–
N/C(=N\O)c1cccc(-c2ccc3c(c2)c2cc(-c4cccc(/C(N)=N/O)c4)ccc2n3S(=O)(=O)c2cc(F)cc(Br)c2)c1,17.3,–
COc1ccc(Br)cc1S(=O)(=O)n1c2ccc(-c3cccc(/C(N)=N/O)c3)cc2c2cc(-c3cccc(/C(N)=N/O)c3)ccc21,4.9,–
Cc1ccccc1S(=O)(=O)n1c2ccc(-c3cccc(/C(N)=N/O)c3)cc2c2cc(-c3cccc(/C(N)=N/O)c3)ccc21,8.6,–
COc1ccc(S(=O)(=O)n2c3ccc(-c4cccc(/C(N)=N/O)c4)cc3c3cc(-c4cccc(/C(N)=N/O)c4)ccc32)cc1Br,2.4,–
CN(C)CCCn1c2ccc(-c3cccc(/C(N)=N/O)c3)cc2c2cc(-c3cccc(/C(N)=N/O)c3)ccc21,–,EC50 (dengue virus type 2 [1]): Not Active
COc1cccc(Cn2c3ccc(-c4cccc(C(=N)N)c4)cc3c3cc(-c4cccc(C(=N)N)c4)ccc32)c1,6.6,IC50 (Genome polyprotein; read-out: IC50): 2.71 µM
N=C(N)c1cccc(-c2ccc3c(c2)c2cc(-c4cccc(C(=N)N)c4)ccc2n3Cc2cccc(Br)c2)c1,–,EC50 (dengue virus type 2 [2]): 16.4 µM; CC50 [3]: 100 µM; EC50 (dengue virus type 2 [4]): 48.1 µM; CC50 [5]: > 100 µM
N/C(=N\O)c1cccc(-c2ccc3c(c2)c2cc(-c4cccc(/C(N)=N/O)c4)ccc2n3S(=O)(=O)c2ccc(Br)c(F)c2)c1,7.8,–
N/C(=N\O)c1cccc(-c2ccc3c(c2)c2cc(-c4cccc(/C(N)=N/O)c4)ccc2n3S(=O)(=O)c2cccc(F)c2)c1,3.1,–
N/C(=N\O)c1cccc(-c2ccc3c(c2)c2cc(-c4cccc(/C(N)=N/O)c4)ccc2n3S(=O)(=O)c2ccccc2OC(F)(F)F)c1,1.9,IC50 (Genome polyprotein): Not Active
COc1ccc(S(=O)(=O)n2c3ccc(-c4cccc(C(=N)N)c4)cc3c3cc(-c4cccc(C(=N)N)c4)ccc32)cc1,9.5,IC50 (Genome polyprotein; read-out: IC50): 6.6 µM
COc1cccc(Cn2c3ccc(-c4cccc(/C(N)=N/O)c4)cc3c3cc(-c4cccc(/C(N)=N/O)c4)ccc32)c1,1.8,EC50 (Zika virus): 8.7 µM; inhibition [6]: inactive
COc1cccc(S(=O)(=O)n2c3ccc(-c4cccc(/C(N)=N/O)c4)cc3c3cc(-c4cccc(/C(N)=N/O)c4)ccc32)c1,8.7,IC50 (Genome polyprotein): Not Active; log(activity) (dengue virus type 2 [7]): 1; log(activity) (dengue virus type 2 [8]): 2; Activity (dengue virus type 2 [9]): 30%; Activity (dengue virus type 2 [10]): inactive; Activity (dengue virus type 2 [11]): inactive; inhibition [12]: Active
N/C(=N\O)c1cccc(-c2ccc3c(c2)c2cc(-c4cccc(/C(N)=N/O)c4)ccc2n3S(=O)(=O)c2cccc(OC(F)(F)F)c2)c1,7.7,IC50 (Genome polyprotein): Not Active
N=C(N)c1cccc(-c2ccc3c(c2)c2cc(-c4cccc(C(=N)N)c4)ccc2n3S(=O)(=O)c2cccc(C(F)(F)F)c2)c1,7.3,IC50 (Genome polyprotein; read-out: IC50): 2.9 µM
N=C(N)c1cccc(-c2ccc3c(c2)c2cc(-c4cccc(C(=N)N)c4)ccc2n3S(=O)(=O)c2ccccc2OC(F)(F)F)c1,5.6,IC50 (Genome polyprotein; read-out: IC50): 9.8 µM
N/C(=N\O)c1cccc(-c2ccc3c(c2)c2cc(-c4cccc(/C(N)=N/O)c4)ccc2n3S(=O)(=O)c2ccccc2Br)c1,7.6,IC50 (Genome polyprotein): Not Active
N/C(=N\O)c1cccc(-c2ccc3c(c2)c2cc(-c4cccc(/C(N)=N/O)c4)ccc2n3Cc2ccc3c(c2)OCO3)c1,5,–
